Data as given in patent US20150352108A1, “AMINO-PYRIMIDINE COMPOUNDS AS INHIBITORS OF TBK1 AND/OR IKK EPSILON” (Alzheimer's Institute of America, priority 2009, published 2015).

Assays:
TBK1 = target: T1, TBK1 (Homo sapiens, UniProt Q9UHD2); assay: In-vitro TBK1 kinase assay ([γ33]ATP filter-plate); type: biochemical; settings: text bins; read-out: IC50 for inhibition of the kinase activity of TBK1
T1 construct: His-tag; made in house; host or cells: Sf9 insect cells
T1 sequence (Q9UHD2 1-729): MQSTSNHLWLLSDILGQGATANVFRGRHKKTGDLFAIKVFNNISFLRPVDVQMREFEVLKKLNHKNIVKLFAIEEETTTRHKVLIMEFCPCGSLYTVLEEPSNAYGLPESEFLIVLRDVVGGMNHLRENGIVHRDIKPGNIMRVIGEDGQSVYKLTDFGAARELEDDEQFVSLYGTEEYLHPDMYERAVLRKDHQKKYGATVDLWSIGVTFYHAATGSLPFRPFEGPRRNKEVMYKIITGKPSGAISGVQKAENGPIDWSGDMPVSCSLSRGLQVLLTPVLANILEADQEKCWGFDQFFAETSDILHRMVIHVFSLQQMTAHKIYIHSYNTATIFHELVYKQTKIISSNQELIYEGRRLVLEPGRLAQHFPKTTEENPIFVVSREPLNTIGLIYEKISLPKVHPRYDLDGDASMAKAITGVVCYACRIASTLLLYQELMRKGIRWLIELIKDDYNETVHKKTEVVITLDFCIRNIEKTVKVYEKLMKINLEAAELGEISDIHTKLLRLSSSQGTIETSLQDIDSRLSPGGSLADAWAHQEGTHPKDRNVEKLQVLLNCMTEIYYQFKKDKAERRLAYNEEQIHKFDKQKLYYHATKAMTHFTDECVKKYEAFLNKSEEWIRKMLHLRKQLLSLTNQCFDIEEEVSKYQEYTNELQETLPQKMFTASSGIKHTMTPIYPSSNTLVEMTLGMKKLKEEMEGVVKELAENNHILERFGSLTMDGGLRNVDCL
Description: IKKε enzyme was produced as a His-tag fusion in Sf9 cells and used at a final concentration of […]. TBK1 enzyme was produced as a His-tag fusion in Sf9 cells and used at a final concentration of 0.1 μg/ml. Kinase reactions were carried out in reaction buffer using myelin basic protein (Millipore, Ballerica, Mass.) or casein (Sigma, St. Louis, Mo.) as substrate at an ATP concentration equal to twice the Km,ATP value for each enzyme, corresponding to 32 μM ATP for IKKε and 60 μM ATP for TBK1, in the presence of 0.3 μCi [γ^33]ATP (PerkinElmer, Waltham, Mass.). Final enzyme concentrations were 0.1 or 0.015 μg/ml (IKKε) and 0.1 or 0.02 μg/ml (TBK1), representing “normal” and “sensitized” assay conditions respectively. Test compounds (or DMSO solvent as a control) were added prior to initiation of the reactions. Reactions were terminated after 30-45 minutes by adding 3% phosphoric acid. Terminated reactions were transferred to P-81 cellulose phosphate filterplates (Whatman, Inc., Piscataway, N.J.) and washed with 1% phosphoric acid on a vacuum apparatus. After air drying, scintillant (PerkinElmer, Waltham, Mass.) was added and the plates were read on a PerkinElmer TopCount NXT instrument. Counts were normalized to DMSO controls after background subtraction.

IKKε = target: T2, IKKε (Homo sapiens, UniProt Q14164); assay: In-vitro IKKε kinase assay ([γ33]ATP filter-plate); type: biochemical; settings: text bins; read-out: IC50 for inhibition of the kinase activity of IKKε
T2 construct: His-tag; made in house; host or cells: Sf9 insect cells
T2 sequence (Q14164 1-716): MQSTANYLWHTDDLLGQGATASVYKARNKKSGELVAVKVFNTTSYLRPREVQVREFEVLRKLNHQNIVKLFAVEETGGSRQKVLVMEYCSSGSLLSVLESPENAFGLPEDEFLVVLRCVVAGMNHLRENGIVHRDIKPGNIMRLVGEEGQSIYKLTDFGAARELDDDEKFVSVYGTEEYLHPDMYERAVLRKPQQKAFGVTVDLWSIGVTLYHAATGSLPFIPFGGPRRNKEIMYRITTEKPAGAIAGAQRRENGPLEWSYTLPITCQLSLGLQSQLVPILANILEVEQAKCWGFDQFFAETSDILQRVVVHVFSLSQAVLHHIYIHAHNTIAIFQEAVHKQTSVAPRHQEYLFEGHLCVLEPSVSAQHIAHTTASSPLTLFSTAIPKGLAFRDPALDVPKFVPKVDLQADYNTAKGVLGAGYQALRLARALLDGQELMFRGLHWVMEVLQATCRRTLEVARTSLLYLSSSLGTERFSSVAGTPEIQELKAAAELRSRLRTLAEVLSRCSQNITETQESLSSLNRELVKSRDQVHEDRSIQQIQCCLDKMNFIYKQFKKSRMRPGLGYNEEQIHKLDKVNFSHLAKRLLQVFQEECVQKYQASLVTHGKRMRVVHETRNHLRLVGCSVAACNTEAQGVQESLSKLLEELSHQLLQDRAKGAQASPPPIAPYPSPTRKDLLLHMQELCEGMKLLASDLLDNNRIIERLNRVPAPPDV
In short: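 His-tagged IKKε and TBK1 from Sf9 cells were assayed with myelin basic protein or casein and [γ33]ATP at 2×Km ATP (32 μM for IKKε, 60 μM for TBK1). Enzyme was 0.1 or 0.015 μg/ml for IKKε and 0.1 or 0.02 μg/ml for TBK1 (normal/sensitized). Reactions ran 30-45 min, were filter-captured, scintillation-counted, and normalized to DMSO after background subtraction.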

Structure (SMILES) | IC50 (TBK1) [nM] | IC50 (IKKε) [nM]
C[C@H](O)C(=O)N1CCC(Oc2ccc(-c3ccnc(Nc4ccc(C(=O)NCCCN(C)C)cc4)n3)cc2C#N)CC1 [Example 4, 4-({4-[3-cyano-4-({1-[(2S)-2-hydroxypropanoyl]piperidin-4-yl}oxy)phenyl]pyrimidin-2-yl}amino)-N-[3-(dimethylamino)propyl]benzamide] | < 10 | < 5
C[C@H](O)C(=O)N1CCC(Oc2ccc(-c3ccnc(Nc4ccc(N5CCOCC5)cc4)n3)cc2C#N)CC1 [Example 6, 2-({1-[(2S)-2-Hydroxypropanoyl]piperidin-4-yl}oxy)-5-(2-{[4-(morpholin-4-yl)phenyl]amino}pyrimidin-4-yl)benzonitrile] | < 10 | < 5
N#Cc1cc(-c2ccnc(Nc3ccc(NC(=O)NCCO)cc3)n2)ccc1OC1CCOCC1 [Example 11, 1-[4-({4-[3-cyano-4-(tetrahydro-2H-pyran-4-yloxy)phenyl]pyrimidin-2-yl}amino)phenyl]-3-(2-hydroxyethyl)urea] | < 10 | < 5
N#Cc1cc(-c2ccnc(Nc3ccc(NC(=O)N4CCOCC4)cc3)n2)ccc1OC1CCOCC1 [Example 13, N-[4-({4-[3-cyano-4-(tetrahydro-2H-pyran-4-yloxy)phenyl]pyrimidin-2-yl}amino)phenyl] morpholin-4-carboxamide] | < 10 | 5 to 50
N#Cc1cc(-c2ccnc(Nc3ccc(NC(=O)Nc4cccnc4)cc3)n2)ccc1OC1CCOCC1 [Example 14, 1-[4-({4-[3-cyano-4-(tetrahydro-2H-pyran-4-yloxy)phenyl]pyrimidin-2-yl}amino)phenyl]-3-pyridin-3-ylurea] | < 10 | < 5
N#Cc1cc(-c2ccnc(Nc3ccc4ncsc4c3)n2)ccc1OC1CCOCC1 [Example 16, 5-[2-(1,3-benzothiazol-6-ylamino)pyrimidin-4-yl]-2-(tetrahydro-2H-pyran-4-yloxy)benzonitrile] | < 10 | < 5
N#Cc1cc(-c2ccnc(Nc3ccc(NC(=O)Nc4ccncc4)cc3)n2)ccc1OC1CCOCC1 [Example 17, 1-[4-({4-[3-cyano-4-(tetrahydro-2H-pyran-4-yloxy)phenyl]pyrimidin-2-yl}amino)phenyl]-3-pyridin-4-ylurea] | 10 to 100 | 5 to 50
N#Cc1cc(-c2ccnc(Nc3ccc(N4CCOCC4)c(F)c3)n2)ccc1OC1CCOCC1 [Example 24, 5-(2-{[3-fluoro-4-(morpholin-4-yl)phenyl]amino}pyrimidin-4-yl)-2-(tetrahydro-2H-pyran-4-yloxy)benzonitrile] | < 10 | < 5
COc1cc(Nc2nccc(-c3ccc(OC4CCN(C(=O)OC(C)(C)C)CC4)c(C#N)c3)n2)ccc1N1CCOCC1 [Example 263, tert-butyl 4-[2-cyano-4-(2-{[3-methoxy-4-(morpholin-4-yl)phenyl]amino}pyrimidin-4-yl)phenoxy]piperidine-1-carboxylate] | 100 to 500 | 
N#Cc1cccc(-c2ccnc(Nc3ccc(OCCN4CCOCC4)cc3)n2)c1 [Example 283, 3-[2-({4-[2-(Morpholin-4-yl)ethoxy]phenyl}amino)pyrimidin-4-yl]benzonitrile] | 10 to 100 | 
N#Cc1cccc(-c2ccnc(Nc3ccc(Cl)cc3)n2)c1 [compound 340, 3-{2-[(4-Chlorophenyl)amino]pyrimidin-4-yl}benzonitrile] | 100 to 500 | 
CC(C)(O)CNC(=O)Nc1cccc(Nc2nccc(-c3ccc(OC4CCOCC4)c(C#N)c3)n2)c1 [compound 649, 1-[3-({4-[3-Cyano-4-(tetrahydro-2H-pyran-4-yloxy)phenyl]pyrimidin-2-yl}amino)phenyl]-3-(2-hydroxy-2-methylpropyl)urea] |  | < 5

Other lines, results leading:

IC50 (TBK1) [nM] | IC50 (IKKε) [nM] | Structure (SMILES)
< 10 | 5 to 50 | CC(C)CC(=O)Nc1ccc(-c2ccnc(Nc3ccc(N4CCOCC4)cc3)n2)cc1C#N [Example 1, N-[2-cyano-4-(2-{[4-(morpholin-4-yl)phenyl]amino}pyrimidin-4-yl)phenyl]-3-methylbutanamide]
10 to 100 | 5 to 50 | N#Cc1cc(-c2ccnc(Nc3ccccc3)n2)ccc1OC1CCOCC1 [Example 12]
< 10 | < 5 | N#Cc1cc(-c2ccnc(Nc3ccc4scnc4c3)n2)ccc1OC1CCOCC1 [Example 15, 5-[2-(1,3-benzothiazol-5-ylamino)pyrimidin-4-yl]-2-(tetrahydro-2H-pyran-4-yloxy)benzonitrile]
< 10 | 5 to 50 | CC(=O)N1CCN(C(=O)Nc2ccc(Nc3nccc(-c4ccc(OC5CCOCC5)c(C#N)c4)n3)cc2)CC1 [Example 19, 4-acetyl-N-[4-({4-[3-cyano-4-(tetrahydro-2H-pyran-4-yloxy)phenyl]pyrimidin-2-yl}amino)phenyl] piperazine-1-carboxamide]
< 10 | 5 to 50 | N#Cc1cc(-c2ccnc(Nc3ccc4c(c3)OCO4)n2)ccc1OC1CCOCC1 [Example 23, 5-[2-(1,3-benzodioxol-5-ylamino)pyrimidin-4-yl]-2-(tetrahydro-2H-pyran-4-yloxy)benzonitrile]
< 10 | < 5 | COc1cc(Nc2nccc(-c3ccc(OC4CCOCC4)c(C#N)c3)n2)ccc1OCCOCCNS(=O)(=O)N(C)C [Example 26, N′-(2-{2-[4-({4-[3-cyano-4-(tetrahydro-2H-pyran-4-yloxy)phenyl]pyrimidin-2-yl}amino)-2-methoxyphenoxy]ethoxy}ethyl)-N,N-dimethylsulfuric diamide]
< 10 | < 5 | COc1cc(Nc2nccc(-c3ccc(OC4CCOCC4)c(C#N)c3)n2)ccc1OCCCS(=O)(=O)N1CCOCC1 [Example 28, 5-[2-({3-methoxy-4-[3-(morpholin-4-ylsulfonyl)propoxy]phenyl}amino)pyrimidin-4-yl]-2-(tetrahydro-2H-pyran-4-yloxy)benzonitrile]
< 10 | < 5 | COc1cc(Nc2nccc(-c3ccc(OC4CCOCC4)c(C#N)c3)n2)ccc1OCCOCCNS(=O)(=O)N1CCOCC1 [Example 29, N-(2-{2-[4-({4-[3-cyano-4-(tetrahydro-2H-pyran-4-yloxy)phenyl]pyrimidin-2-yl}amino)-2-methoxyphenoxy]ethoxy}ethyl) morpholine-4-sulfonamide]
< 10 | < 5 | COc1cc(Nc2nccc(-c3ccc(OC(C)C)c(C#N)c3)n2)cc(OC)c1OC [Example 33, 2-(Propan-2-yloxy)-5-{2-[(3,4,5-trimethoxyphenyl)amino]pyrimidin-4-yl}benzonitrile]
